In ChEMBL document CHEMBL1817626, “The structure-activity relationship of urea derivatives as anti-tuberculosis agents” (Bioorg Med Chem, 2011):
pIC50: −log10 of the molar value. In brackets after ≈: the same amount, converted by molar mass.

Key:
Enterococcus faecalis = experiment: Antibacterial activity against Enterococcus faecalis; assay type: functional
Enterococcus faecium = experiment: Antibacterial activity against Enterococcus faecium; assay type: functional
[1] = molecular target: T1, Hydrolase, alpha/beta hydrolase fold family (Mycobacterium tuberculosis) (UniProt O69638); experiment: Inhibition of Mycobacterium tuberculosis recombinant EphE expressed in Escherichia coli BL21 using CMNPC as substrate at 10 nM after 30 mins by fluorescent assay relative to control
T1 sequence (whole entry): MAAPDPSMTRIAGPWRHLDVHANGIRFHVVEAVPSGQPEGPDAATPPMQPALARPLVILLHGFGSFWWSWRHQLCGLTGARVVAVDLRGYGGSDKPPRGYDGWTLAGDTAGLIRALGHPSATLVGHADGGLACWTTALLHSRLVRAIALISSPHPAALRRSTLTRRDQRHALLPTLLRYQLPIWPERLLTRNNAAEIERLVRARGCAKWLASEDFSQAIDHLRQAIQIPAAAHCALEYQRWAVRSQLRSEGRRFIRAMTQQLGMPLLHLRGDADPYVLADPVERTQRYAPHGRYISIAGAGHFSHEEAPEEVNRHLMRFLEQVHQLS

[2] = molecular target: T2, Bifunctional epoxide hydrolase 2 (Homo sapiens, UniProt P34913); experiment: Inhibition of human recombinant soluble epoxide hydrolase using CMNPC as substrate after 10 mins by fluorescent assay
T2 sequence (P34913 whole entry): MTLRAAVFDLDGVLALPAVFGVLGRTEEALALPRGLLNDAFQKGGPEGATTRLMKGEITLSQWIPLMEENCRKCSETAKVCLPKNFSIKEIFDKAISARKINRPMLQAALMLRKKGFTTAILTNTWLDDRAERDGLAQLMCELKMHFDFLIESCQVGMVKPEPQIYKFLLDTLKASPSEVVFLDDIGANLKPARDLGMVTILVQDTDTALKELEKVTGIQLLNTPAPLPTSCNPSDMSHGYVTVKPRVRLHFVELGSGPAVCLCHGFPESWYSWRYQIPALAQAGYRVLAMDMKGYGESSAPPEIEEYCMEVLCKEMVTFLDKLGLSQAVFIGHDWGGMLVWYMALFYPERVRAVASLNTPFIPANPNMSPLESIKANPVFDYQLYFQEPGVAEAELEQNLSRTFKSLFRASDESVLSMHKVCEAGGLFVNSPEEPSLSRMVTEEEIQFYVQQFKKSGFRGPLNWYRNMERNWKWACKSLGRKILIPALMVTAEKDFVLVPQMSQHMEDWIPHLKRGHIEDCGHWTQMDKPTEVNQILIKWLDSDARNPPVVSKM

Pseudomonas aeruginosa = experiment: Antibacterial activity against Pseudomonas aeruginosa; assay type: functional
[3] = tested on: Mycobacterium tuberculosis; experiment: microbe, parasite or virus in culture; details: H37Rv, 168 h
Vero = experiment: Cytotoxicity against african green monkey Vero cells after 72 hrs by MTT assay; assay type: cell-based; details: Chlorocebus sabaeus
[4] = molecular target: T3, Epoxide hydrolase B (Mycobacterium tuberculosis) (UniProt P95276); experiment: Inhibition of Mycobacterium tuberculosis recombinant EphB expressed in Escherichia coli BL21 using CMNPC as substrate at 10 nM after 30 mins by fluorescent assay relative to control
T3 sequence (whole entry): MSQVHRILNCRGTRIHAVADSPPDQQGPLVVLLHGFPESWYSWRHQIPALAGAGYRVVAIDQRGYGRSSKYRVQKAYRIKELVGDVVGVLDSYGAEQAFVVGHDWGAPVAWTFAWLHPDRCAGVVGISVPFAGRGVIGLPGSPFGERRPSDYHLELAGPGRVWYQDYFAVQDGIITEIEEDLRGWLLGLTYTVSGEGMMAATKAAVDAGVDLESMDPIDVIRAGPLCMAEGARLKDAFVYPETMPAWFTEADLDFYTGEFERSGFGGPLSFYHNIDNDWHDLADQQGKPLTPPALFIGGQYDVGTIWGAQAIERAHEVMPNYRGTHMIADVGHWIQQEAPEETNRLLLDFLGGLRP

Staphylococcus aureus = experiment: Antibacterial activity against Staphylococcus aureus; assay type: functional
Klebsiella pneumoniae = experiment: Antibacterial activity against Klebsiella pneumoniae; assay type: functional
[5] = tested on: Mycolicibacterium smegmatis; experiment: microbe, parasite or virus in culture; details: str. MC2 155, 168 h
Bacillus anthracis = experiment: microbe, parasite or virus in culture
Escherichia coli [6] = experiment: Antibacterial activity against Escherichia coli K12; assay type: functional; details: K-12
Escherichia coli [7] = experiment: Antibacterial activity against Escherichia coli […] TolC; assay type: functional

Compound | MIC (Enterococcus faecalis) [mg/L] | MIC (Enterococcus faecium) [mg/L] | inhibition [1] [%] | pIC50 [2] | MIC (Pseudomonas aeruginosa) [mg/L] | MIC [3] [mg/L] | IC50 (Vero) [mg/L] | inhibition [4] [%] | MIC (Staphylococcus aureus) [mg/L] | MIC (Klebsiella pneumoniae) [mg/L] | MIC [5] [mg/L] | MIC (Bacillus anthracis) [mg/L] | MIC (Escherichia coli [6]) [mg/L] | MIC (Escherichia coli [7]) [mg/L]
COc1ccc(NC(=O)NC2C3CC4CC(C3)CC2C4)cc1 (configuration not stated) | > 200 | > 200 | 83.1 | 7.84 | > 200 | 0.4 (≈ 1.33 µM) | 13.4 (≈ 44.6 µM) | 95.1 | > 200 | > 200 | 100 (≈ 333 µM) | > 200 | – | –
CC(C)OCCNC(=O)NC12CC3CC(CC(C3)C1)C2 | > 200 | > 200 | 14.7 | 6.58 | > 200 | 25 (≈ 89.2 µM) | 6.4 (≈ 22.8 µM) | 11.9 | > 200 | > 200 | 200 (≈ 713 µM) | > 200 | > 200 | > 200
CC(C)NC(=O)NC1C2CC3CC(C2)CC1C3 (configuration not stated) | > 200 | > 200 | 57.3 | 7.07 | > 200 | 50 (≈ 212 µM) | 23.4 (≈ 99 µM) | 27.2 | > 200 | > 200 | > 100 | > 200 | > 200 | > 200
Cc1ccc(NC(=O)NCC23CC4CC(CC(C4)C2)C3)cc1Cl | > 200 | > 200 | 94.1 | 9.40 | > 200 | 0.02 (≈ 0.0601 µM) | 4.34 (≈ 13 µM) | 33.9 | > 200 | > 200 | 0.8 (≈ 2.4 µM) | > 200 | > 200 | > 200
O=C(Nc1ccc(F)c(F)c1F)NC12CC3CC(CC(C3)C1)C2 | > 200 | > 200 | 92.2 | – | > 200 | – | 726 (≈ 2240 µM) | 89.7 | – | > 200 | > 200 | > 200 | > 200 | > 200
O=C(Nc1ccc(F)c(F)c1F)OC1C2CC3CC(C2)CC1C3 (configuration not stated) | > 200 | > 200 | 21.4 | 6.33 | > 200 | 6 (≈ 18.4 µM) | – | 10.2 | > 200 | > 200 | 50 (≈ 154 µM) | > 200 | > 200 | 12.5 (≈ 38.4 µM)
O=C(Nc1ccc(F)c(F)c1F)NC1CCCCC1 | > 200 | > 200 | 65.6 | 8.92 | > 200 | – | 15.9 (≈ 58.4 µM) | 96.4 | > 200 | > 200 | 12.5 (≈ 45.9 µM) | > 200 | > 200 | > 200
CCCCCCCNC(=O)Nc1ccc(F)c(F)c1F | > 200 | > 200 | 92.8 | 9.40 | > 200 | 6 (≈ 20.8 µM) | 130 (≈ 450 µM) | 87.5 | – | > 200 | > 200 | > 200 | > 200 | 6.25 (≈ 21.7 µM)
O=C(Nc1ccccc1)Nc1ccccc1 | – | – | – | 6.41 | – | – | – | – | – | – | – | – | – | –
Fc1ccc(NC(=S)NC2C3CC4CC(C3)CC2C4)c(F)c1F (configuration not stated) | > 200 | > 200 | 35.5 | 8.32 | > 200 | 0.8 (≈ 2.35 µM) | – | 21.3 | > 200 | > 200 | – | 3.12 (≈ 9.17 µM) | > 200 | 3.12 (≈ 9.17 µM)
CCCCCCCNC(=O)Nc1cccc(C(F)(F)F)c1F | > 200 | > 200 | 46.8 | 9.40 | > 200 | 3 (≈ 9.37 µM) | – | 5.5 | > 200 | > 200 | 100 (≈ 312 µM) | > 200 | > 200 | > 200
CN(C(=O)N(C)C1C2CC3CC(C2)CC1C3)c1ccc(F)c(F)c1F (configuration not stated) | > 200 | > 200 | 25.2 | 5.74 | > 200 | 12 (≈ 34.1 µM) | – | < 1 | > 200 | > 200 | 200 (≈ 568 µM) | > 200 | > 200 | 12.5 (≈ 35.5 µM)
NNC(=O)c1ccncc1 [ISONIAZID] | – | – | – | – | – | 0.01 (≈ 0.0729 µM) | – | – | – | – | – | – | – | –
O=C(Nc1ccc(F)c(F)c1F)NC1C2CC3CC(C2)CC1C3 (configuration not stated) | > 200 | > 200 | 71.4 | – | > 200 | – | – | – | > 200 | > 200 | – | > 200 | > 200 | > 200
CC[C@@H](CO)NCCN[C@@H](CC)CO [ETHAMBUTOL] | – | – | – | – | – | 0.01 (≈ 0.0489 µM) | – | – | – | – | – | – | – | –
O=C(Nc1ccc(F)c(F)c1F)NC1CCCCCCC1 | > 200 | > 200 | 91.6 | 9.40 | > 200 | – | 63.4 (≈ 211 µM) | 95.7 | – | > 200 | 0.8 (≈ 2.66 µM) | > 200 | > 200 | 3.12 (≈ 10.4 µM)
CC1(C)C2CCC(CNC(=O)Nc3ccc(F)c(F)c3F)C1C2 (configuration not stated) | > 200 | > 200 | 103 | 9.40 | > 200 | 0.2 (≈ 0.613 µM) | 15.5 (≈ 47.5 µM) | 38.6 | 3.13 (≈ 9.59 µM) | > 200 | 1.6 (≈ 4.9 µM) | 1.6 (≈ 4.9 µM) | > 200 | –
CCOCCNC(=O)NC12CC3CC(CC(C3)C1)C2 | > 200 | > 200 | 17.6 | 6.28 | > 200 | 50 (≈ 188 µM) | – | 18.7 | > 200 | > 200 | > 200 | > 200 | > 200 | > 200
CC(C)CCOc1ccc(NC(=O)Nc2ccc(OCCC(C)C)cc2)cc1 | > 200 | > 200 | 88.8 | 8.19 | > 200 | 200 (≈ 520 µM) | – | 14.6 | > 200 | > 200 | > 200 | > 200 | > 200 | 3.12 (≈ 8.11 µM)
O=C(Nc1ccc(F)c(F)c1F)NC1CCCC1 | > 200 | > 200 | 36 | 7.25 | > 200 | 50 (≈ 194 µM) | – | 86.4 | > 200 | > 200 | 200 (≈ 774 µM) | > 200 | > 200 | > 200
CN(C(=O)NC1C2CC3CC(C2)CC1C3)c1ccc(F)c(F)c1F (configuration not stated) | > 200 | > 200 | 22.8 | 7.42 | > 200 | 6 (≈ 17.7 µM) | – | 6.7 | > 200 | > 200 | – | > 200 | > 200 | 25 (≈ 73.9 µM)
N#Cc1ccc(NC(=O)NC2C3CC4CC(C3)CC2C4)cc1 (configuration not stated) | > 200 | > 200 | 72.7 | 8.96 | > 200 | 0.4 (≈ 1.35 µM) | 7.1 (≈ 24 µM) | 9 | > 200 | > 200 | 12.5 (≈ 42.3 µM) | 12.5 (≈ 42.3 µM) | – | –
